SMILES strings stand for the structures.

This passage reports mortality results from patent publication US10721929B2, “Heterocyclic compound and harmful-arthropod-controlling agent containing same” (Sumitomo Chemical Company, Limited, priority 2016, dated 2020).

This assay deals with western corn rootworm. The experiment in a line: Test Example 5: corn seedling immersion test, western corn rootworm larvae. Type of assay: in vivo. The conditions noted are these: Zea mays, 120 h, corn seedlings immersed 30 seconds, ten 2-instar larvae, five days later, read-out: mortality rate of insects. As for the experimental part:
1 mg of each test compound is dissolved in 50 μL of a mixed solution of polyoxyethylene sorbitan monococoate:acetone=5.95 (volume ratio). To the resultant is added water containing 0.03% by volume of a spreading agent, to prepare a diluted solution containing a predetermined concentration of the test compound.
Seeds of corn (Zea mays) are seeded onto a tray lined with wet Kimwipes, After the corn has grown for 5 days, die entire seedlings are immersed into the diluted solution for 30 seconds. Thereafter, two seedlings are put in a petri dish (diameter of 90 mm), and ten 2-instar larvae of western corn rootworm are released thereinto. Five days later, the number of dead insects is counted, and a mortality rate of insects is calculated by the following expression. Mortality rate of insects (%)=(number of dead insects/10)×100.

For orientation: mortality means the share of the test organisms that died. Regarding `CCSc1c(-c2ccc(OCC(F)(F)C(F)(F)F)cn2)nc2ccc(C(F)(F)F)cn12` [Compound 1], the mortality at 500 ppm was at least 80%.
